Assay [1] deals with murine C6 glioblastoma cells. The conditions noted are these: compared with parent compound 5-methylindirubin; WO 03/070703; cited from earlier work.
The test system of another assay is human cancer cell lines. Briefly: Antiproliferative activity against human cancer cell lines, compared with indirubin. The conditions noted are these: as compared to the parent molecule. Format: cell-based. As for the experimental part:
(§1) The antiproliferative activity was determined using the Sulforhodamin B assay (SRB assay) as reported previously (Vatter et al. 2005, Int. J. Clin. Pharmacal.Ther. 43, 607). Table 1: Inhibition of tumor cell proliferation, SRB assay.

The test system of the next assay is HT29. Kind of assay: Inhibition of tumor cell proliferation, Sulforhodamin B assay (SRB assay), HT29. It counts as cell-based. To be noted: Homo sapiens, HT-29. As for the experimental part: as §1
A general note: In SRB staining, fixed cells bind dye roughly in proportion to their protein.

The subject of another assay is MCF7. Kind of assay: Inhibition of tumor cell proliferation, Sulforhodamin B assay (SRB assay), MCF7. Format: cell-based. To be noted: Homo sapiens. On the procedure: as §1

The text below walks through data of patent publication EP2199292A1, “7-azaindirubins, 7'-azaindirubins, 7-7'-diazaindirubin and the corresponding 3'-oxime ether derivates: production thereof, their production and use as a medicament” (Technische Universität Kaiserslautern, priority 2008, dated 2010).

Like-named read-outs stand apart in the source and are kept apart here.

`Cc1cc2c(cc1O)NC(=O)C2=C1Nc2ccccc2C1=O`: the “inhibition of murine C6 glioblastoma cells” value in assay [1] is “as effective as the parent compound”.

With `O=C1Nc2ccccc2C1=C1Nc2ncccc2C1=O` [E843, 7'-Azaindirubin], the antiproliferative activity entry in the assay with human cancer cell lines was “markedly augmented”.

Regarding `O=C1Nc2ncccc2C1=C1Nc2ncccc2C1=O` [E864, 7,7'-Diazaindirubin], the IC50 in the assay with HT29 (HT29, SRB assay, read-out: Inhibition of cell proliferation IC50) was 5 nM; in the assay on HT29 (HT29 colon tumor cells, IC50 values ranging down to, read-out: inhibition of proliferation IC50) it was not below 2 nM; in the assay with MCF7 (MCF7, MCF-7 breast cancer cells, IC50 values ranging down to, read-out: inhibition of proliferation IC50) it was not below 2 nM; with MCF7 (MCF7, SRB assay, read-out: Inhibition of cell proliferation IC50) it was 7 nM.

On to `O=C1Nc2ncccc2/C1=C1/Nc2ccccc2C1=O` [Example 12, 7-Azaindirubin], for which the antiproliferative activity result in the assay on human cancer cell lines is “markedly augmented”.
